Test results taken from PubChem BioAssay (NCI).
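Values below derive from 48-hour exposures of cells grown in 96-well plates, with endpoints linearly interpolated between the two concentrations bracketing the appropriate inhibition level. GI50: concentration for 50% inhibition of growth. TGI: total growth inhibition.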

Legend:
Assay in all cases: NCI-60 cell line screen, 48 h
A498 renal = tested on: A498 renal
A549 NSCLC = tested on: A549 NSCLC
LOX IMVI melanoma = tested on: LOX IMVI melanoma
NCI-H226 lung = tested on: NCI-H226 lung
OVCAR-4 ovarian = tested on: OVCAR-4 ovarian
SK-MEL-28 melanoma = tested on: SK-MEL-28 melanoma
SNB-19 CNS = tested on: SNB-19 CNS
U251 CNS = tested on: U251 CNS
UACC-62 melanoma = tested on: UACC-62 melanoma
UO-31 renal = tested on: UO-31 renal

Structure (SMILES) | TGI (A498 renal) [µM] | TGI (A549 NSCLC) [µM] | TGI (LOX IMVI melanoma) [µM] | TGI (NCI-H226 lung) [µM] | TGI (OVCAR-4 ovarian) [µM] | TGI (SK-MEL-28 melanoma) [µM] | TGI (SNB-19 CNS) [µM] | TGI (U251 CNS) [µM] | TGI (UACC-62 melanoma) [µM] | TGI (UO-31 renal) [µM] | GI50 (A498 renal) [µM] | GI50 (A549 NSCLC) [µM] | GI50 (LOX IMVI melanoma) [µM] | GI50 (NCI-H226 lung) [µM] | GI50 (OVCAR-4 ovarian) [µM] | GI50 (SK-MEL-28 melanoma) [µM] | GI50 (SNB-19 CNS) [µM] | GI50 (U251 CNS) [µM] | GI50 (UACC-62 melanoma) [µM] | GI50 (UO-31 renal) [µM]
Cn1c(=O)nc2n(-c3ccc(Cl)cc3)c3cc(Cl)ccc3nc-2c1=O | 27.6 | 33 | 5.84 | 42.5 | 2.53 | 7.19 | 27.9 | 33 | 3.57 | 24.2 |  |  |  |  |  |  |  |  |  | 
CSc1ccc2c(cc1=O)[C@@H](NC(=O)c1ccc(Cl)cc1)CCc1cc(O)c(O)c(O)c1-2 | > 100 | > 100 | 33.6 | > 100 | 82 | > 100 | > 100 | > 100 | 68.1 | > 100 |  |  |  |  |  |  |  |  |  | 
COc1ccc(NC2=C(I)C(=O)c3ncccc3C2=O)cc1 | 3.28 | 3.91 | 1.57 | 2.83 | 2.35 | 3.3 | 3.29 | 2.12 | 3.4 | 2.21 | 1.74 | 1.84 | 0.309 | 1.42 | 1.12 | 1.66 | 1.18 | 0.673 | 1.66 | 0.85
O=c1cnnc(N/N=C/c2ccccc2O)[nH]1 | 23.3 | > 100 | > 48.2 | 51.7 | > 23.8 | 53.2 | > 100 | > 100 | 7.88 | 13.5 | 1.81 | 1.55 | 1.07 | 1.63 | 0.264 | 4.54 | 6.41 | 2.11 | 1.31 | 1.61
C#Cc1cccc(Nc2ncnc3ccc(OCCCCNCCS(C)(=O)=O)cc23)c1 | 9.75 | > 25 | 11.1 | > 25 | > 25 | 8.56 | > 25 | > 23.3 | 9.1 | > 15.4 | 3.18 | 6.43 | 4.78 | > 19.6 | 9.55 | 4.58 | 15.2 | 6.43 | 4.82 | 3.31
CC1=C(C)C(=O)O[C@@H]([C@](C)(O)[C@]2(O)CC[C@@]3(O)[C@@H]4C[C@H](O)[C@]5(O)[C@@H](O)C=CC(=O)[C@]5(C)[C@H]4CC[C@]23C)C1 | > 100 | > 100 | > 100 | > 100 | > 100 | > 100 | > 100 | > 100 | > 100 | > 100 |  |  |  |  |  |  |  |  |  | 
O=C(C=P(c1ccccc1)(c1ccccc1)c1ccccc1)CCl | 2.46 | 8.14 | 1.04 | 2.97 | 2.2 | 3.55 | 15.1 | 3.7 | 2.88 | 2.38 | 1.09 | 2.16 | 0.353 | 1.31 | 0.488 | 1.54 | 3.55 | 1.58 | 1.14 | 1.04
O=Nc1c(-c2c(O)[nH]c3cc(Br)ccc23)[nH]c2ccccc12 | 1.83 | 4.89 | 2.55 | 3.49 | 5.37 | 4.79 | 16.7 | 8.52 | 2.95 | 2.03 | 0.416 | 1.06 | 1.1 | 0.932 | 1.23 | 2.37 | 5.07 | 1.87 | 1.29 | 0.334
CC(C)(c1ccccc1)c1cc(O)c(C(C)(C)c2ccccc2)cc1O | 10.1 | 13.4 | 3.82 | 16 | 9.92 | 14 | 12.1 | 9.97 | 4.93 | 11.3 | 2.16 | 2.77 | 1.54 | 1.09 | 1.26 | 2.81 | 2.91 | 2.14 | 1.71 | 2.1
COc1ccc(C(=NN=C(N)N)c2ccc(OC)cc2)cc1 | 13.3 | 18.5 | 11.4 | 18.3 | 16.4 | 19.1 | 16.4 | 14.1 | 14.1 | 15.6 | 2.78 | 4.91 | 2.91 | 4.37 | 3.46 | 5.7 | 3.72 | 3.72 | 3.54 | 3.46
COc1cc([N+](=O)[O-])c(OC)cc1-c1nc2sc(C)cn2c1/C(N)=N/C(=N)N | 69.1 | > 100 | > 100 | > 100 | > 100 | > 100 | > 100 | > 100 | 52.4 | > 100 | 27.3 | 40.7 | 30.4 | 43.2 | > 100 | 7.02 | 39.4 | 6.49 | 23.8 | 38.3
N#Cc1c(NC(=O)c2ccc(F)cc2)sc2c1CCCC2 | > 25 | > 25 | > 25 | > 25 | > 25 | > 25 | > 25 | > 25 | > 25 | > 25 | > 25 | > 25 | > 25 | > 25 | > 25 | > 25 | > 25 | > 25 | > 25 | > 25
O=C(OCCCl)C1OC(n2cc(F)c(=O)[nH]c2=O)CC1O (stereo not given) | > 100 | > 100 | > 100 | > 100 | > 100 | > 100 | > 100 | > 100 | > 100 | > 100 |  |  |  |  |  |  |  |  |  | 
Cc1cnc2oc3ccc(O)cc3c2c1-c1ccccc1 | 70.5 | > 100 | > 100 | 44.2 | > 100 | > 100 | > 100 | 51 | 50.8 | > 100 | 21.5 | > 100 | 21.6 | 9.35 | > 100 | > 100 | 34.3 | 17.9 | 6.02 | 51.6
